Data on 25 compounds can be found in patent publication US11472791B2 (Incyte Corporation, priority 2019, dated 2022).

pIC50: −log10 of the molar value.

The assay concerns the target CDK2/Cyclin E1 (Homo sapiens (Human), UniProt P24941). As to the kind of experiment: CDK2/Cyclin E1 HTRF enzyme activity assay. The note with it: 1 mM ATP. Type of assay: biochemical. The protocol:
Assays are conducted in white 384-well polystyrene plates in a final reaction volume of 8 μL. […] HTRF signals are read after 1 hour at room temperature on a PHERAstar FS plate reader (BMG Labtech). Data is analyzed with IDBS XLFit and GraphPad Prism 5.0 software using a three or four parameter dose response curve to determine IC50 for each compound.
In the case of `Cc1nc(CN2CCN(C)CC2)ccc1-n1cc(-c2nc(NC3CCN(S(=O)(=O)c4cn(C)cn4)CC3)ncc2Cl)cn1` [Example 249, 5-Chloro-N-(1-((1-methyl-1H-imidazol-4-yl)sulfonyl)piperidin-4-yl)-4-(1-(2-methyl-6-((4-methylpiperazin-1-yl)methyl)pyridin-3-yl)-1H-pyrazol-4-yl)pyrimidin-2-amine], the pIC50 was more than 7.30. Turning to `O=S(=O)(Cc1ccccc1)N1CCC(Nc2ncc(C(F)(F)F)c(-c3cnn(C4CCOCC4)c3)n2)CC1` [Example 5, N-(1-(Benzylsulfonyl)piperidin-4-yl)-4-(1-(tetrahydro-2H-pyran-4-yl)-1H-pyrazol-4-yl)-5-(trifluoromethyl)pyrimidin-2-amine], the pIC50 is more than 7.30. In turn, `CNCc1ccc(-n2cc(-c3nc(N[C@H]4CCN(S(=O)(=O)c5cn(C)cn5)C[C@H]4C)ncc3C(F)(F)F)cn2)c(C)n1` [Example 270, N-((3R,4S)-3-Methyl-1-((1-methyl-1H-imidazol-4-yl)sulfonyl)piperidin-4-yl)-4-(1-(2-methyl-6-((methylamino)methyl)pyridin-3-yl)-1H-pyrazol-4-yl)-5-(trifluoromethyl)pyrimidin-2-amine] gave a pIC50 of more than 7.30. `CC(C)(O)Cn1cc(-c2nc(N[C@H]3CCN(S(=O)(=O)C4CC4)C[C@H]3F)ncc2C(F)(F)F)cn1` [Example 57, 1-(4-(2-(((3R,4S)-1-(Cyclopropylsulfonyl)-3-fluoropiperidin-4-yl)amino)-5-(trifluoromethyl)pyrimidin-4-yl)-1H-pyrazol-1-yl)-2-methylpropan-2-ol]: the pIC50 was more than 7.30.

For `CC(=O)N1CC[C@@H](NCc2ccc(-n3cc(-c4nc(NC5CCN(S(C)(=O)=O)CC5)ncc4C#N)cn3)c(Cl)c2)C1` [Example 170, (R)-4-(1-(4-(((1-Acetylpyrrolidin-3-yl)amino)methyl)-2-chlorophenyl)-1H-pyrazol-4-yl)-2-((1-(methylsulfonyl)piperidin-4-yl)amino)pyrimidine-5-carbonitrile], the pIC50 is more than 7.30.

Turning to `CN1CCN(Cc2ccc(-n3cc(-c4nc(NC5CCN(S(=O)(=O)c6ccccn6)CC5)ncc4C#N)cn3)c(Cl)c2)CC1` [Example 258, 4-(1-(2-Chloro-4-((4-methylpiperazin-1-yl)methyl)phenyl)-1H-pyrazol-4-yl)-2-((1-(pyridin-2-ylsulfonyl)piperidin-4-yl)amino)pyrimidine-5-carbonitrile], the pIC50 is more than 7.30. `CCNCc1ccc(-n2cc(-c3nc(NC4CCN(S(=O)(=O)c5cn(C)cn5)CC4)ncc3Cl)cn2)c(C)n1` [Example 267, 5-Chloro-4-(1-(6-((ethylamino)methyl)-2-methylpyridin-3-yl)-1H-pyrazol-4-yl)-N-(1-((1-methyl-1H-imidazol-4-yl)sulfonyl)piperidin-4-yl)pyrimidin-2-amine]: the pIC50 was more than 7.30.

Compound `CC(C)(O)Cn1cc(-c2nc(NC3CCN(S(=O)(=O)CCCN4CCCCC4)CC3)ncc2C#N)cn1` [Example 215, 4-(1-(2-Hydroxy-2-methylpropyl)-1H-pyrazol-4-yl)-2-((1-((3-(piperidin-1-yl)propyl)sulfonyl)piperidin-4-yl)amino)pyrimidine-5-carbonitrile] showed a pIC50 of more than 7.30.

`CCNCc1ccc(-n2cc(-c3nc(N[C@H]4CCN(S(=O)(=O)c5cn(C)cn5)C[C@H]4C)ncc3C#N)cn2)c(C)n1` [Example 273, 4-(1-(6-((Ethylamino)methyl)-2-methylpyridin-3-yl)-1H-pyrazol-4-yl)-2-(((3R,4S)-3-methyl-1-((1-methyl-1H-imidazol-4-yl)sulfonyl)piperidin-4-yl)amino)pyrimidine-5-carbonitrile] showed a pIC50 of more than 7.30. In the case of `Cc1cc(CN2CCN(C(C)C)CC2)ccc1-n1cc(-c2nc(NC3CCN(S(=O)(=O)c4cn(C)cn4)CC3)ncc2Cl)cn1` [Example 247, 5-Chloro-4-(1-(4-((4-isopropylpiperazin-1-yl)methyl)-2-methylphenyl)-1H-pyrazol-4-yl)-N-(1-((1-methyl-1H-imidazole-4-yl)sulfonyl)piperidin-4-yl)pyrimidin-2-amine] it was more than 7.30. The figure for `Cc1nc(CNC(C)(C)C(N)=O)ccc1-n1cc(-c2nc(NC3CCN(S(C)(=O)=O)CC3)ncc2C#N)cn1` [Example 264, 2-(((5-(4-(5-Cyano-2-((1-(methylsulfonyl)piperidin-4-yl)amino)pyrimidin-4-yl)-1H-pyrazol-1-yl)-6-methylpyridin-2-yl)methyl)amino)-2-methylpropanamide] is more than 7.30. With `Cc1nc(CNC(C)C)ccc1-n1cc(-c2nc(N[C@H]3CCN(S(=O)(=O)c4cn(C)cn4)C[C@H]3C)ncc2C(F)(F)F)cn1` [Example 276, 4-(1-(6-((Isopropylamino)methyl)-2-methylpyridin-3-yl)-1H-pyrazol-4-yl)-N-((3R,4S)-3-methyl-1-((1-methyl-1H-imidazol-4-yl)sulfonyl)piperidin-4-yl)-5-(trifluoromethyl)pyrimidin-2-amine], the pIC50 was more than 7.30. As for `Cn1cnc(S(=O)(=O)N2CCC(Nc3ncc(C(F)(F)F)c(-c4cnn(-c5ccnc(N)c5Cl)c4)n3)CC2)c1` [Example 36, 4-(1-(2-Amino-3-chloropyridin-4-yl)-1H-pyrazol-4-yl)-N-(1-((1-methyl-1H-imidazol-4-yl)sulfonyl)piperidin-4-yl)-5-(trifluoromethyl)pyrimidin-2-amine], the pIC50 is more than 7.30. Turning to `Cc1cc(CN2CCOCC2)ccc1-n1cc(-c2nc(NC3CCN(S(=O)(=O)c4cn(C)cn4)CC3)ncc2C(F)(F)F)cn1` [Example 107, N-(1-((1-Methyl-1H-imidazol-4-yl)sulfonyl)piperidin-4-yl)-4-(1-(2-methyl-4-(morpholinomethyl)phenyl)-1H-pyrazol-4-yl)-5-(trifluoromethyl)pyrimidin-2-amine], the pIC50 was more than 7.30. In the case of `CC(C)(O)Cn1cc(-c2nc(NC3CCN(S(=O)(=O)CCCN4CC[C@@H](O)C4)CC3)ncc2C(F)(F)F)cn1` [Example 224, (R)-1-(3-((4-((4-(1-(2-Hydroxy-2-methylpropyl)-1H-pyrazol-4-yl)-5-(trifluoromethyl)pyrimidin-2-yl)amino)piperidin-1-yl)sulfonyl)propyl)pyrrolidin-3-ol] it was more than 7.30. In turn, `CS(=O)(=O)N1CCC(Nc2ncc(C#N)c(-c3cnn(-c4ccc(CN[C@H]5CCCOC5)cc4Cl)c3)n2)CC1` [Example 196, (S)-4-(1-(2-Chloro-4-(((tetrahydro-2H-pyran-3-yl)amino)methyl)phenyl)-1H-pyrazol-4-yl)-2-((1-(methylsulfonyl)piperidin-4-yl)amino)pyrimidine-5-carbonitrile] showed a pIC50 of more than 7.30. The figure for `CCS(=O)(=O)N1CCC(Nc2ncc(C#N)c(-c3cnn(-c4ccc(CNc5cnn(C)c5)cc4Cl)c3)n2)CC1` [Example 165, 4-(1-(2-Chloro-4-(((1-methyl-1H-pyrazol-4-yl)amino)methyl)phenyl)-1H-pyrazol-4-yl)-2-((1-(ethylsulfonyl)piperidin-4-yl)amino)pyrimidine-5-carbonitrile] is more than 7.30; for `C[C@H]1C[C@H](Nc2ncc(C(F)(F)F)c(-c3cnn(C4CCOCC4)c3)n2)CCN1S(C)(=O)=O` (racemic) [Example 21, (±)-N-((2S,4R)-2-Methyl-1-(methylsulfonyl)piperidin-4-yl)-4-(1-(tetrahydro-2H-pyran-4-yl)-1H-pyrazol-4-yl)-5-(trifluoromethyl)pyrimidin-2-amine] it is more than 7.30. In the case of `CNCc1ccc(-n2cc(-c3nc(N[C@H]4CCN(S(=O)(=O)C5CCC5)C[C@H]4F)ncc3C#N)cn2)c(Cl)c1` [Example 121, 4-(1-(2-Chloro-4-((methylamino)methyl)phenyl)-1H-pyrazol-4-yl)-2-(((3R,4S)-1-(cyclobutylsulfonyl)-3-fluoropiperidin-4-yl)amino)pyrimidine-5-carbonitrile] it was more than 7.30; in that of `CNCc1ccc(-n2cc(-c3nc(N[C@H]4CCN(S(=O)(=O)C(C)C)C[C@H]4F)ncc3C#N)cn2)c(Cl)c1` [Example 119, 4-(1-(2-Chloro-4-((methylamino)methyl)phenyl)-1H-pyrazol-4-yl)-2-(((3R,4S)-3-fluoro-1-(isopropylsulfonyl)piperidin-4-yl)amino)pyrimidine-5-carbonitrile], more than 7.30; in that of `COC(=O)N1CCC[C@H](NCc2ccc(-n3cc(-c4nc(NC5CCN(S(C)(=O)=O)CC5)ncc4C#N)cn3)c(Cl)c2)C1` [Example 167, Methyl (S)-3-((3-chloro-4-(4-(5-cyano-2-((1-(methylsulfonyl)piperidin-4-yl)amino)pyrimidin-4-yl)-1H-pyrazol-1-yl)benzyl)amino)piperidine-1-carboxylate], more than 7.30. Regarding `Cc1nn(C2CCN(C)CC2)cc1-c1nc(NC2CCN(S(C)(=O)=O)CC2)ncc1F` [Example 15, 5-Fluoro-4-(3-methyl-1-(1-methylpiperidin-4-yl)-1H-pyrazol-4-yl)-N-(1-(methylsulfonyl)piperidin-4-yl)pyrimidin-2-amine], the pIC50 was 6.70 to 7.30.

Turning to `Cc1nc(CN2CCN(C(C)C)CC2)ccc1-n1cc(-c2nc(NC3CCN(S(=O)(=O)c4cn(C)cn4)CC3)ncc2Cl)cn1` [Example 251, 5-Chloro-4-(1-(6-((4-isopropylpiperazin-1-yl)methyl)-2-methylpyridin-3-yl)-1H-pyrazol-4-yl)-N-(1-((1-methyl-1H-imidazol-4-yl)sulfonyl)piperidin-4-yl)pyrimidin-2-amine], the pIC50 is more than 7.30.

Turning to `CN1CC(S(=O)(=O)N2CCC(Nc3ncc(C(F)(F)F)c(-c4cnn(CC(C)(C)O)c4)n3)CC2)C1` [Example 85, 2-Methyl-1-(4-(2-((1-((1-methylazetidin-3-yl)sulfonyl)piperidin-4-yl)amino)-5-(trifluoromethyl)pyrimidin-4-yl)-1H-pyrazol-1-yl)propan-2-ol], the pIC50 was more than 7.30.

`O=S(=O)(c1cn[nH]c1)N1CCC(Nc2ncc(C(F)(F)F)c(-c3cnn(CC(F)(F)F)c3)n2)CC1` [Example 2, N-(1-((1H-Pyrazol-4-yl)sulfonyl)piperidin-4-yl)-4-(1-(2,2,2-trifluoroethyl)-1H-pyrazol-4-yl)-5-(trifluoromethyl)pyrimidin-2-amine] had a pIC50 of more than 7.30.

One may read the pIC50 as −log10 of the IC50, conventionally taken in molar units. Low readings indicate a high IC50, high ones a low IC50.
